Key:
[1] = target: T1, human mAChR M1 (Homo sapiens, UniProt P11229); experiment: mAChR M1 cell-based functional assay (calcium mobilization), agonist mode: compound alone, Emax relative to acetylcholine maximum; conditions: for EC50 / Agonist Activity Human M1 EC50: human mAChR M1; for Emax: relative to the maximum for acetylcholine
T1 sequence (P11229 1-460): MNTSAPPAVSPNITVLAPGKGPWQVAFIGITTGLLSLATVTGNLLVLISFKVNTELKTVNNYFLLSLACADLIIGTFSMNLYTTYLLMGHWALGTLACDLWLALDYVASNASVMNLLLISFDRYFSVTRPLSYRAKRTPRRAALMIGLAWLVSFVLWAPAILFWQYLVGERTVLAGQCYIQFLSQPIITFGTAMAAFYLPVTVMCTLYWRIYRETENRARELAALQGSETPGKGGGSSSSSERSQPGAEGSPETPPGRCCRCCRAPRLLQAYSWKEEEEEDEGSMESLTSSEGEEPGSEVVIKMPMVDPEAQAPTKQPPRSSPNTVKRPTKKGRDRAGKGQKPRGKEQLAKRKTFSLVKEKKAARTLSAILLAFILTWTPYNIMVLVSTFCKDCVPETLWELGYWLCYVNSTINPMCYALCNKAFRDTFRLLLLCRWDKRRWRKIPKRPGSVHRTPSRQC
Description: (§1) Chinese hamster ovary (CHO-K1) cells stably expressing rat (r)M1 were purchased from the American Type Culture Collection and cultured according to their indicated protocol. CHO cells stably expressing human (h)M2, hM3, and hM5 were described previously (Levey, et al., 1991); hM1 and hM4 cDNAs were purchased from Missouri S&T cDNA Resource; rM4 cDNA was provided by T. I. Bonner (National Institutes of Health, Bethesda, MD). rM2 and rM3 were cloned from a rat brain cDNA library and sequence verified. hM1, rM2, rM3, hM4, and rM4 cDNAs were used to stably transfect CHO-K1 cells purchased from the American Type Culture Collection using Lipofectamine2000. To make stable rM2, hM2, rM3, hM4, and rM4 cell lines for use in calcium mobilization assays, these cells also were stably transfected with a chimeric G-protein (Gqi5) (provided by B. R. Conklin, University of California, San Francisco) using Lipofectamine 2000. rM1, hM1, rM3, hM3, rM5, and hM5 cells were grown in Ham's F-12 medium containing 10% heat-inactivated fetal bovine serum (FBS), 20 mM HEPES, and 50 μg/mL G418 sulfate. rM2-Gqi5, hM2-Gqi5, and hM4-Gqi5 cells were grown in the same medium also containing 500 μg/mL Hygromycin B. Stable rM4-Gqi5 cells were grown in DMEM containing 10% heat-inactivated FBS, 20 mM HEPES, 400 μg/mL G418 sulfate, and 500 μg/mL Hygromycin B.
(§2) For high throughput measurement of agonist-evoked increases in intracellular calcium, CHO-K1 cells stably expressing muscarinic receptors were plated in growth medium lacking G418 and hygromycin at 15,000 cells/20 μL/well in Greiner 384-well black-walled, tissue culture (TC)-treated, clear-bottom plates (VWR). Cells were incubated overnight at 37° C. and 5% C02. The next day, cells were washed using an ELX 405 (BioTek) with four washes (80 μL) of assay buffer then aspirated to 20 μL. Next, 20 μL of 16 μM Fluo-4/acetoxymethyl ester (Invitrogen, Carlsbad, CA) prepared as a 2.3 mM stock in DMSO and mixed in a 1:1 ratio with 10% (w/v) Pluronic F-127 and diluted in assay buffer was added to the wells and the cell plates were incubated for 50 min at 37° C. and 5% C02. Dye was removed by washing with the ELX 405 (four 80 μL washes of assay buffer) then aspirated to 20 μL. Compound master plates were formatted in an 11 point CRC format (1:3 dilutions) in 100% DMSO with a starting concentration of 10 mM using the BRAVO liquid handler (Agilent). Test compound CRCs were then transferred to daughter plates (240 nL) using the Echo acoustic plate reformatter (Labcyte, Sunnyvale, CA) and then diluted into assay buffer (40 μL) to a 2× stock using a Thermo Fisher Combi (Thermo Fisher Scientific, Waltham, MA).
(§3) Calcium flux was measured using the Functional Drug Screening System (FDSS) 6000 (Hamamatsu Corporation, Tokyo, Japan) as an increase in the fluorescent static ratio. Compounds were applied to cells (20 μL, 2×) using the automated system of the FDSS 6000 at 4 s into the 300 s protocol and the data were collected at 1 Hz. At 144 s into the 300 s protocol, 10 μL of an EC20 concentration of the muscarinic receptor agonist acetylcholine was added (5×), followed by the addition of 12 μL of an EC80 concentration of acetylcholine at the 230 s time point (5×). Agonist activity was analyzed as a concentration-dependent increase in calcium mobilization upon compound addition. Emax values for agonist activity are expressed relative to the maximum for acetylcholine. Positive allosteric modulator activity was analyzed as a concentration-dependent increase in the EC20 acetylcholine response. Antagonist activity was analyzed as a concentration-dependent decrease in the EC80 acetylcholine response. Concentration-response curves were generated using a four-parameter logistical equation in XLfit curve fitting software (IDBS, Bridgewater, NJ) for Excel (Microsoft, Redmond, WA) or Prism (GraphPad Software, Inc., San Diego, CA).

[2] = target: T1, human mAChR M1; experiment: mAChR M1 cell-based functional assay (calcium mobilization), PAM mode: increase in the EC20 acetylcholine response
Description: as §1, §2
as §3, with “CA). […]” for “CA).”

SMILES	EC50 [1]	Emax [1]	EC50 [2]	Emax [2]	Agonist Activity Human M1 EC50 [1]
[2H]C1([2H])c2ncccc2C(=O)N1Cc1c(C)cc(-c2ccc(F)c3nn(C)cc23)cc1F [Compound 198, 6-(2-fluoro-4-(7-fluoro-2-methyl-2H-indazol-4-yl)-6-methylbenzyl)-6,7-dihydro-5H-pyrrolo[3,4-b]pyridin-5-one-7,7-d2]	5600 nM	30%	347 nM	79%	–
[2H]C1([2H])c2ncccc2C(=O)N1Cc1c(F)cc(-c2ccc(OC3CC3)c3nn(C)cc23)cc1Cl [Compound 169, 6-(2-chloro-4-(7-cyclopropoxy-2-methyl-2H-indazol-4-yl)-6-fluorobenzyl)-6,7-dihydro-5H-pyrrolo[3,4-b]pyridin-5-one-7,7-d2]	–	7%	630 nM	81%	Inactive
[2H]C1([2H])c2ncccc2C(=O)N1Cc1c(F)cc(-c2ccc(OCSC)c3nn(C)cc23)cc1F [Compound 185, 6-(2,6-difluoro-4-(2-methyl-7-((methylthio)methoxy)-2H-indazol-4-yl)benzyl)-6,7-dihydro-5H-pyrrolo[3,4-b]pyridin-5-one-7,7-d2]	–	6%	722 nM	74%	Inactive
[2H]C1([2H])c2ncccc2C(=O)N1Cc1c(F)cc(-c2cc(Cl)c3nn(C)cc3c2)cc1F [Compound 89, 6-(4-(7-chloro-2-methyl-2H-indazol-5-yl)-2,6-difluorobenzyl)-6,7-dihydro-5H-pyrrolo[3,4-b]pyridin-5-one-7,7-d2]	–	1%	88 nM	46%	Inactive
[2H]C1([2H])c2ncccc2C(=O)N1Cc1c(F)cc(-c2ccc(C)c3nn(C)cc23)cc1C1CC1 [Compound 204, 6-(2-cyclopropyl-4-(2,7-dimethyl-2H-indazol-4-yl)-6-fluorobenzyl)-6,7-dihydro-5H-pyrrolo[3,4-b]pyridin-5-one-7,7-d2]	7450 nM	49%	293 nM	70%	–
[2H]C([2H])([2H])Oc1ccc(-c2cc(F)c(CN3C(=O)c4cccnc4C3([2H])[2H])c(F)c2)c2cn(C)nc12 [Compound 93, 6-(2,6-difluoro-4-(7-(methoxy-d3)-2-methyl-2H-indazol-4-yl)benzyl)-6,7-dihydro-5H-pyrrolo[3,4-b]pyridin-5-one-7,7-d2]	3300 nM	21%	131 nM	76%	–
[2H]C1([2H])c2ncccc2C(=O)N1Cc1c(F)cc(-c2ccc(OCC)c3nn(C)cc23)cc1F [Compound 96, 6-(4-(7-ethoxy-2-methyl-2H-indazol-4-yl)-2,6-difluorobenzyl)-6,7-dihydro-5H-pyrrolo[3,4-b]pyridin-5-one-7,7-d2]	7520 nM	26%	211 nM	80%	–
[2H]C1([2H])c2ncccc2C(=O)N1Cc1ccc(-c2cc(F)cc3nn(C)cc23)cc1 [Compound 72, 6-(4-(6-fluoro-2-methyl-2H-indazol-4-yl)benzyl)-6,7-dihydro-5H-pyrrolo[3,4-b]pyridin-5-one-7,7-d2]	–	4%	472 nM	75%	Inactive
[2H]C1([2H])c2ncccc2C(=O)N1Cc1c(F)cc(-c2ccc(OCS(C)(=O)=O)c3nn(C)cc23)cc1F [Compound 186, 6-(2,6-difluoro-4-(2-methyl-7-((methylsulfonyl)methoxy)-2H-indazol-4-yl)benzyl)-6,7-dihydro-5H-pyrrolo[3,4-b]pyridin-5-one-7,7-d2]	7230 nM	15%	391 nM	72%	–
[2H]C1([2H])c2ncccc2C(=O)N1Cc1c(F)cc(-c2cccc3nn(C([2H])([2H])[2H])cc23)cc1C(F)(F)F [Compound 226, 6-(2-fluoro-4-(2-(methyl-d3)-2H-indazol-4-yl)-6-(trifluoromethyl)benzyl)-6,7-dihydro-5H-pyrrolo[3,4-b]pyridin-5-one-7,7-d2]	–	2%	1360 nM	54%	Inactive
[2H]C1([2H])c2ncccc2C(=O)N1Cc1c(F)cc(-c2ccc(OC3CN(S(=O)(=O)C(C)C)C3)c3nn(C)cc23)cc1F [Compound 187, 6-(2,6-difluoro-4-(7-((1-(isopropylsulfonyl)azetidin-3-yl)oxy)-2-methyl-2H-indazol-4-yl)benzyl)-6,7-dihydro-5H-pyrrolo[3,4-b]pyridin-5-one-7,7-d2]	–	1%	473 nM	67%	Inactive
[2H]C1([2H])c2ncccc2C(=O)N1Cc1c(F)cc(-c2ccc(O)c3nn(C)cc23)cc1F [Compound 130, 6-(2,6-Difluoro-4-(7-hydroxy-2-methyl-2H-indazol-4-yl)benzyl)-6,7-dihydro-5H-pyrrolo[3,4-b]pyridin-5-one-7,7-d2]	4560 nM	52%	123 nM	82%	–
[2H]C1([2H])c2ncccc2C(=O)N1Cc1ccc(-c2cccc3nn(C([2H])([2H])[2H])cc23)cc1F [Compound 53, 6-(2-fluoro-4-(2-(methyl-d3)-2H-indazol-4-yl)benzyl)-6,7-dihydro-5H-pyrrolo[3,4-b]pyridin-5-one-7,7-d2]	> 10000 nM	9%	325 nM	84%	–
[2H]C1([2H])c2ncccc2C(=O)N1Cc1c(F)cc(-c2ccc(OC3CCC3)c3nn(C)cc23)cc1F [Compound 125, 6-(4-(7-cyclobutoxy-2-methyl-2H-indazol-4-yl)-2,6-difluorobenzyl)-6,7-dihydro-5H-pyrrolo[3,4-b]pyridin-5-one-7,7-d2]	≥ 10000 nM	14%	382 nM	72%	–

From patent US20240228489A1, “POSITIVE ALLOSTERIC MODULATORS OF THE MUSCARINIC ACETYLCHOLINE RECEPTOR M1” (Vanderbilt University, priority 2021, published 2024)
